According to BindingDB's records for doi:10.1021/ml2001455 (2011):
pIC50: −log10 of the molar value.

Legend:
[1] = target: T1, Mitogen-activated protein kinase 14 (Homo sapiens, UniProt Q16539); assay: Inhibition of p38alpha in human PBMC assessed as inhibition of LPS-induced TNFalpha production after 16 to 18 hrs by ELISA
[2] = target: T1, Mitogen-activated protein kinase 14; assay: Inhibition of p38alpha kinase using KRELVEPLTPSGEAPNQALLR as substrate for 20 mins by lactate dehydrogenase-coupled spectrophotometric assay
[3] = target: T1, Mitogen-activated protein kinase 14; assay: Inhibition of p38alpha in human PBMC assessed as inhibition of LPS-induced IL1beta production after 16 to 18 hrs by ELISA

T1 sequence (Q16539 whole entry): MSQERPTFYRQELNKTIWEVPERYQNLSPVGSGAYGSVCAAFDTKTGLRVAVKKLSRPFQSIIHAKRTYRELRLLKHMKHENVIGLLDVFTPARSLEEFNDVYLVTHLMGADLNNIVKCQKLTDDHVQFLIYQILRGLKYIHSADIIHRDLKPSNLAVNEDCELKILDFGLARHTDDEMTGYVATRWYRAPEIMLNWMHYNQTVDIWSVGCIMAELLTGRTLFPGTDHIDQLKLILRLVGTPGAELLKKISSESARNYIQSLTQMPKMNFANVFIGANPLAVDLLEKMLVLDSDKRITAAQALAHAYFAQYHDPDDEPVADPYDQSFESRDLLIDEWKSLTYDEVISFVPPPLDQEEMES

| pIC50 [1] | pIC50 [2] | pIC50 [3] | Structure (SMILES) |
| --- | --- | --- | --- |
| < 4.70 | – | – | COc1ccccc1-c1c(=O)ncn2nc(Sc3ccccc3)ccc12 |
| < 4.70 | < 4.70 | – | COc1ccc(-c2c(=O)ncn3nc(Sc4ccccc4)ccc23)cc1 |
| < 4.70 | < 4.70 | < 4.70 | O=c1ncn2nc(Sc3ccccc3)ccc2c1-c1ccc(Cl)c(Cl)c1 |
